Experimental data published in US6838477B2, “Lactacystin analogs” (President and Fellows of Harvard College, priority 1995, dated 2005).

Tests used:
[1] = target: T1, Calpain I (Homo sapiens, UniProt P07384); experiment: Selectivity of protease inhibition: calpain I; assay type: biochemical; conditions: concentration not given
T1 sequence (P07384 1-714): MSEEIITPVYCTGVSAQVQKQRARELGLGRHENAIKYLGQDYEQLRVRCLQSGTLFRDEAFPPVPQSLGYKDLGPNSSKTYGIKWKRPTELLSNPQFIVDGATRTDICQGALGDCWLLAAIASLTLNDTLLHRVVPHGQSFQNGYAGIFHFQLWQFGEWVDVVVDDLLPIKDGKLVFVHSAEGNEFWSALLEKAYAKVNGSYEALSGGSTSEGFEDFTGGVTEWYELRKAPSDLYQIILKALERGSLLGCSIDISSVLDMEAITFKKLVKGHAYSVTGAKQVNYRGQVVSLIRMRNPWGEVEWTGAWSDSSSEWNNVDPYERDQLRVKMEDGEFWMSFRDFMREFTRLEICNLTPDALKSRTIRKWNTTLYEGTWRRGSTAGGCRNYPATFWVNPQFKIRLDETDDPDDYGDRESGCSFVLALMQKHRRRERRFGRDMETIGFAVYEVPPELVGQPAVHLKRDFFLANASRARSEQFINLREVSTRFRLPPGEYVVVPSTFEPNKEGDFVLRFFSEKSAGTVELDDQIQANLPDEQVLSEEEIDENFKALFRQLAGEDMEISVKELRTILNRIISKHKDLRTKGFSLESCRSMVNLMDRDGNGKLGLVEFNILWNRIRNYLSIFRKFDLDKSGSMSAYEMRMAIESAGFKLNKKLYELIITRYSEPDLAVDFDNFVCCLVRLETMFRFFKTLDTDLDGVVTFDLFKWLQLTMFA
T1 sequence (P04632 1-268 partner): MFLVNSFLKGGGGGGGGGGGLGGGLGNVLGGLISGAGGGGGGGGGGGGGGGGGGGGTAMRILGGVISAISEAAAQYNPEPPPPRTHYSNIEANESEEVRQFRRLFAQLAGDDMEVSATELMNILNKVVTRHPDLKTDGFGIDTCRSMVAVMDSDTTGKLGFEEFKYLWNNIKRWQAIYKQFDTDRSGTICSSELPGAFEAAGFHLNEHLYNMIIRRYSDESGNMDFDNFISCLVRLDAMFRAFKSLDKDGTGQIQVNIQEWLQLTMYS

[2] = tested on: IκB-α; experiment: TNF-α dependent degradation of IκB-α in Hela cells (immunoblot); assay type: cell-based, human; conditions: 5 μM, 1 h pretreatment, 1,000 U/ml TNF-α
Experimental: Hela cells were plated onto 6-well plates in DME plus 10% fetal calf serum (3 mls/well). Cells were then pretreated with 0.125% DMSO 40 μM […] (carbobenzoxyl-leucinyl-leucinyl-leucinal-H)(40 μM, lanes 103), or 5 μM β-lactone for one hour, followed by treatment with 1,000 U/ml TNF-α or phosphate buffered saline (PBS). Cells were harvested after 0 min, 20 min, or 40 min of further incubation at 37° C. Cells were then lysed in buffer containing NP-40 and protease inhibitors, and the proteins separated on a 10% SDS-polyacrylamide gel. The proteins were then transferred to nitrocellulose and probed with antibodies against the C-terminal 20 amino acids of human IκB-α.

CC(C)[C@H](O)[C@@]12NC(=O)[C@H](C)[C@@H]1OC2=O [β-Lactone, clasto-lactacystin β-lactone]
inhibition of calpain I activity [1]: do not inhibit | degradation of IκB after TNF induction [2]: blocks degradation | phosphorylated form of IκB [2]: stabilizes the phosphorylated form
